Data from US20230263748A1, “APPLICATION OF BENFLUMETOL AND DERIVATIVES THEREOF IN TREATMENT OF CORONAVIRUS INFECTION” (ACADEMY OF MILITARY MEDICAL SCIENCES, priority 2020, published 2023).
Where two headings read alike, the source gives them in different places.

Tests used:
[1] = tested on: SARS-CoV-2; type: cell-based; conditions: for Viral genome copy number (MOI = 0.05): supernatant
[2] = tested on: Vero E6 cells; assay: Detection of drug cytotoxicity by CCK-8 kit; type: cell-based; conditions: for Cell viability (% of negative control): Vero E6, 48 h
Experimental: The detection of drug cytotoxicity was performed by CCK-8 kit (Beoytime). Specific steps were as follows: • (1) 1×10^4 Vero E6 (ATCC) cells were inoculated in a 96-well plate and cultured at 37° C. for 8 hours. • (2) The drug was diluted with DMSO to obtain a stock solution with an appropriate concentration, and then diluted with MEM medium (purchased from Gibco, Cat. No. 10370021) containing 2% FBS (purchased from Gibco, Cat. No. 16000044) to the same concentration as that for the drug treatment. The original medium in the 96-well plate was discarded, 100 μL of drug-containing MEM medium was added to the cells, and three replicate wells were set for each concentration. Negative control (adding DMSO and medium to the cell wells, without adding drug) and blank control (no cells, adding DMSO and medium) were set. After the drug was added, the cells were cultured at 37° C. for 48 hours. • (3) 20 μL of CCK-8 solution (Beoytime) was added to the wells to be tested, mixed gently without generating air bubbles, and incubation was continued at 37° C. for 2 hours. OD450 was read on a microplate reader (purchased from Molecular Devices, model: SpectraMax M5), and cell viability was calculated:
Cell viability (%)=(A(drug treatment group)−A(blank control))/(A(negative control)−A(blank control))×100% • wherein A represents reading of microplate reader.

## CCCCN(CCCC)CC(O)c1cc(Cl)cc2c1-c1ccc(Cl)cc1/C2=C/c1ccc(Cl)cc1 (centres unmarked) [benflumetol]
[1]; 3.13 μM, Vero E6 cells, 48 h after infection
  Viral genome copy number (MOI = 0.05): 125717580
[1]; 6.25 μM, Vero E6 cells, 48 h after infection
  Viral genome copy number (MOI = 0.05): 87462582
[1]; 12.5 μM, Vero E6 cells, 48 h after infection
  Viral genome copy number (MOI = 0.05): 87790130
[1]; 25 μM, Vero E6 cells, 48 h after infection
  Viral genome copy number (MOI = 0.05): 48801530
[1]; 50 μM, Vero E6 cells, 48 h after infection
  Viral genome copy number (MOI = 0.05): 20512679
[1]; 100 μM, Vero E6 cells, 48 h after infection
  Viral genome copy number (MOI = 0.05): 2927366
[1]; Vero E6 cells, 48 h after infection, FIG. 1
  Inhibition of viral RNA load on cells, dose dependence (in words): the inhibitory activity was dose-dependent
[1]; at 100 μM, 50 μM and 25 μM
  Inhibition of replication of the SARS-CoV-2 virus genome in the infection supernatant (in words): effectively inhibit the replication of the SARS-CoV-2 virus genome
[2]; 0.78 μM
  Cell viability (% of negative control): 92.88%
[2]; 1.56 μM
  Cell viability (% of negative control): 94.55%
[2]; 3.13 μM
  Cell viability (% of negative control): 96.69%
[2]; 6.25 μM
  Cell viability (% of negative control): 106.70%
[2]; 12.5 μM
  Cell viability (% of negative control): 108.69%
[2]; 25 μM
  Cell viability (% of negative control): 113.54%
[2]; 50 μM
  Cell viability (% of negative control): 115.52%
[2]; 100 μM
  Cell viability (% of negative control): 122.12%
[2]; all test concentrations
  Toxic effect on the cells (in words): no toxic effect on the cells at all concentrations
